# Measured values reported in US8410068B2, “Compounds for the treatment or alleviation of edema, and methods for their use” (Index Pharmaceuticals AB, priority 2007, dated 2013).
# How the values were obtained:
# [1] = system: arachidonic acid (AA) induced ear edema; test: Arachidonic acid (AA) induced ear edema model; format: in vivo, mice; conditions: for AUC reduction (%) AA: 10 μg one single s.c. injection 20 minutes before AA, compared to PBS control; for Peak reduction (%) AA: 10 μg subcutaneously 20 minutes before induction of edema
# Protocol: A stock solution of AA was prepared by diluting AA in acetone, 4 mg/10 μL, and was stored frozen at −80° C. A final working solution, 1 mg/10 μL, in acetone was prepared. The working solution was used within one hour after preparation.
# (§1) Both outer ears of a non-anesthetized mouse were washed with mild soap (Palmolive, Sweden) using a soft tooth brush, the ears were dried with tissue and cleaned with tissue soaked with acetone. After allowing the acetone to evaporate, TPA or AA was applied on both sides, 10 μL, on each side of the ear with care to cover the whole ear. The mouse was held for 20 seconds to allow the solvent to evaporate.
# (§2) The ears of non-anesthetized mice were measured at different time points for up to 96 hours after the TPA was administered, or up to 24 hours for the AA model. The first measurements were done before the edema was induced. The thickness was recorded with a spring loaded dial micrometer (Limit, Thickness Gauge, accuracy 0.01 mm, contact area Ø6 mm, Luna AB, Allingsås, Sweden) in triplicates at all time points per ear.
# (§3) The average thickness for both ears on a mouse was calculated and compared to the average thickness of the ears at the starting time point. The value obtained at the start of the experiment was set as 100%. The peak values and area under the curve (AUC) values for the treatment groups were calculated and compared to the inflamed control group, treated with PBS (set as 100%), and expressed as a percentage change (Δ% AUC).
# (§4) Area under the curve (AUC) with base line set as 100 was calculated using GraphPad Prism version 4.03 for Windows (GraphPad Software, San Diego Calif. USA, www.graphpad.com).
# In addition to the experiments done with the control compounds and IDX0001, all other test compounds were investigated in a similar fashion in the TPA and/or AA ear edema models, where the test compounds were given subcutaneously (10 μg) 20 minutes before induction of edema. The results were expressed as reduction of peak value and reduction of area under curve (AUC) in Table 5.
# [2] = system: tetradecanoylphorbol 13-acetate (TPA) induced ear edema; test: TPA-induced ear edema model; format: in vivo, mice; conditions: for Differences in AUC: Study L dose response; for Reduction of AUC compared to PBS: Study A / FIG. 1, one single injection (i.p. in Study A, s.c. in FIG. 1) 20 min before TPA, day 0; for AUC reduced: Study J; for AUC reduction (%) TPA: 10 μg one single s.c. injection 20 minutes before TPA, compared to PBS control; for Peak reduction (%) TPA: 10 μg subcutaneously 20 minutes before induction of edema
# Protocol: A stock solution of TPA was prepared by dissolving TPA in DMSO, 1 mg/mL, and was stored frozen at −80° C. For study B-E, a working solution was prepared with 200 μL of the TPA stock solution added to 800 μL acetone. The working solution was used the same day as it was prepared.
# Each cage was identified by a cage card marked with study number, group number, ethical approval number, sex and animal ear numbers. The animals were individually marked on the tail with transverse lines corresponding to the animals' number, using a permanent-ink felt pen. An illustration of the protocols used for the different treatments is outlined in Table 4. The compounds were tested according to the same protocols with necessary modifications.
# Intraperitoneal (i.p.) injections were performed by giving 100 μL in the lower right quadrant of the abdomen. Subcutaneous injections were done with 100 μL in the neck region. Intranasal administration was performed by letting the mouse inhale droplets into the nostrils, total volume 40 μL. All administrations were done on non-anesthetized mice.
# as §1
# Intraperitoneal injections were given in the lower right quadrant of the abdomen with the animal held in a supine position. Subcutaneous (s.c.) injections were given in the neck of the animals. Intranasal administrations were given to mice held in a slightly reclining position. With an adjustable micro-pipette 40 μL of the test substance was given in droplets on the nostrils and the mouse was allowed to aspirate at free will.
# as §2, §3, §4
# AUC reduction and P-values were calculated against the positive control (TPA or AA+PBS).
# [3] = Study B, 100 μg s.c. 4 days before induction of edema
# [4] = Study C (repeat of B), 100 μg s.c. 4 days before induction of edema
# [5] = Study D, 100 μg s.c. 2 days before induction of edema
# [6] = Study E, 100 μg s.c. same day, approx. 20 min before induction
# [7] = Study F, equal doses 50 μg s.c. same day as swelling induced
# [8] = Study G, therapeutic, 100 μg s.c. 2 hours after induction of edema
# [9] = Study H, 100 μg intranasal 4 days before swelling induced
# [10] = Study I, 100 μg intranasal day 0, same day as edema induced
# [11] = therapeutic, 100 μg intranasal 2 hours after induction
molecule,measurement,setting,value
O=C1CCN(c2ccccc2)N1 [Phenidone],reduction of AUC,"[1]; FIG. 4, phenidone given 30 min before AA, IDX0150 given 20 min before AA",−39.1%
"G*G*A*A*C*A*G*T*T*C*G*T*C*C*A*T*G*G*C (as printed in the source, key not given here) [IDX0500]",reduction of AUC,"[2]; Study N, 0.005 μg, one single i.n. (Table 4) day 0",−15%
same,reduction of AUC,"[2]; Study N, 0.01 μg, one single i.n. (Table 4) day 0",−15.3%
same,reduction of AUC,"[2]; Study N, 0.1 μg, one single i.n. (Table 4) day 0",−18.2%
same,reduction of AUC,"[2]; Study N, 1 μg, one single i.n. (Table 4) day 0",−54.1%
same,reduction of AUC,"[2]; Study O, 10 μg given s.c. on day 0 (Table 4: i.n.)",−25.5%
"G*G*A*ACAGTTGCTCCAT*G*G*C (as printed in the source, key not given here) [IDX0526, negative control, having the CpG motif substituted with a GC]",Differences in AUC,"[2]; 0.1 μg, one single i.n. (Table 4) day 0",+1.24%
same,Differences in AUC,"[2]; 100 μg, one single i.n. (Table 4) day 0",+6.18%
same,anti-swelling activity,"[2]; Study L, 0.1-100 μg",no anti-swelling activity
"G*G*G*GAACAGTTCGTCCAT*G*G*C (phosphorothioate linkages, as printed in the source, key not given here) [IDX0955, oligonucleotide used as control; * = phosphorothioate modification]",Reduction of AUC compared to PBS,[2]; 100 μg,−4.8%
same,reduction of AUC,[2]; [3],−22.7%
same,reduction of AUC,[2]; [4],−24.3%
same,reduction of AUC,[2]; [5],−17.8%
same,reduction of AUC,[2]; [6],−17.7%
same,reduction of AUC,[2]; [7],−18.3%
same,reduction of AUC,[2]; [8],−40.7%
same,reduction of AUC,[2]; [9],−17.4%
same,reduction of AUC,[2]; [10],−28.8%
same,AUC reduced,[2]; [11],−17.2%
"G*G*G*GCGTCTGCC*G*G*G (GGGGCGTCTGCCGGG; DNA, linkages s3 o8 s3 (s phosphorothioate, o phosphodiester), methylation of C not given here) [IDX9051, oligonucleotide; * = phosphorothioate modification]",AUC reduction (%) AA,[1],−67.5%
same,Peak reduction (%) AA,[1],−17.7%
same,AUC reduction (%) TPA,[2],−54.0%
same,Peak reduction (%) TPA,[2],−29.5%
T*C*C*A*T*G*A*C*G*T*T*C*C*T*G*A*C*G*T*T [IDX0920],Reduction of AUC compared to PBS,[2]; 50 μg,−22.1%
same,reduction of AUC,"[2]; Study B, 50 μg s.c. 4 days before induction of edema",−19.3%
same,reduction of AUC,"[2]; Study C (repeat of B), 50 μg s.c. 4 days before induction of edema",−3%
same,reduction of AUC,"[2]; Study D, 50 μg s.c. 2 days before induction of edema",−19.1%
same,reduction of AUC,"[2]; Study E, 50 μg s.c. same day, approx. 20 min before induction",−19.4%
same,reduction of AUC,[2]; [7],−17%
same,reduction of AUC,"[2]; Study G, therapeutic, 50 μg s.c. 2 hours after induction of edema",−43.8%
same,reduction of AUC,"[2]; Study H, 50 μg intranasal 4 days before swelling induced",−33.8%
same,reduction of AUC,"[2]; Study I, 50 μg intranasal day 0, same day as edema induced",−27.3%
same,AUC reduced,"[2]; therapeutic, 50 μg intranasal 2 hours after induction",−28.7%
"T*C*C*ATGGTCAGGGTCCCGG*G*G*G (TCCATGGTCAGGGTCCCGGGGG; DNA, linkages s3 o15 s3 (s phosphorothioate, o phosphodiester), methylation of C not given here) [IDX9064, oligonucleotide; * = phosphorothioate modification]",AUC reduction (%) TPA,[2],−59.7%
same,Peak reduction (%) TPA,[2],−41.7%
"T*C*C*CAAGATCGTCC*A*G*G (phosphorothioate linkages, as printed in the source, key not given here) [IDX9076, oligonucleotide; * = phosphorothioate modification]",AUC reduction (%) AA,[1],−45.7%
same,Peak reduction (%) AA,[1],−20.1%
same,AUC reduction (%) TPA,[2],−5.1%
same,Peak reduction (%) TPA,[2],−2.6%
"T*C*C*GATCGTCC*A*G*G (TCCGATCGTCCAGG; DNA, linkages s3 o7 s3 (s phosphorothioate, o phosphodiester), methylation of C not given here) [IDX9078]",AUC reduction (%) AA,[1],−79.4%
same,Peak reduction (%) AA,[1],−16.4%
same,AUC reduction (%) TPA,[2],−41.3%
same,Peak reduction (%) TPA,[2],−26.1%
"T*C*C*GCGTTCGGCCTCCTGGCG*C*G*G (phosphorothioate linkages, as printed in the source, key not given here) [IDX0001, oligonucleotide; * = phosphorothioate modification]",Reduction of AUC compared to PBS,[2]; 100 μg,−15.7%
same,reduction of AUC,[2]; [3],−16.3%
same,reduction of AUC,[2]; [4],−17.9%
same,reduction of AUC,[2]; [5],−12.4%
same,reduction of AUC,[2]; [6],−16.7%
same,reduction of AUC,[2]; [7],−13.2%
same,reduction of AUC,[2]; [8],−17.9%
same,reduction of AUC,[2]; [9],−25.7%
same,reduction of AUC,[2]; [10],−6.4%
same,AUC reduced,[2]; [11],−25.2%
"T*C*G*TCTGCTTAGTTCGTTA*G*T*T (TCGTCTGCTTAGTTCGTTAGTT; DNA, linkages s3 o15 s3 (s phosphorothioate, o phosphodiester), methylation of C not given here) [IDX9087]",AUC reduction (%) TPA,[2],−40.2%
same,Peak reduction (%) TPA,[2],+0.9%
"T*G*C*CATTCGTCGTTCTCGTC*G*T*T (phosphorothioate linkages, as printed in the source, key not given here) [IDX9024, oligonucleotide; * = phosphorothioate modification]",AUC reduction (%) AA,[1],−58.5%
same,Peak reduction (%) AA,[1],−14.4%
same,AUC reduction (%) TPA,[2],−47.3%
same,Peak reduction (%) TPA,[2],−30.9%
